Data as given in ChEMBL document CHEMBL4813956, “Cytotoxic Physalins from Aeroponically Grown Physalis acutifolia” (J Nat Prod, 2021).

Columns and labels:
SF-268 [1] = test: Cytotoxicity against human SF-268 cells assessed as cell growth inhibition up to 10 uM measured after 24 to 72 hrs by MTT assay relative to control; type: functional; conditions: dose microM <=10; time 24-72 hrs
NCI-H460 [2] = test: Cytotoxicity against human NCI-H460 cells assessed as cell growth inhibition up to 10 uM measured after 24 to 72 hrs by MTT assay relative to control; type: functional; conditions: dose microM <=10; time 24-72 hrs
MCF7 [3] = test: Cytotoxicity against human MCF7 cells assessed as cell growth inhibition up to 10 uM measured after 24 to 72 hrs by MTT assay relative to control; type: functional; conditions: dose microM <=10; time 24-72 hrs
PC-3 [4] = test: Cytotoxicity against human PC-3 cells assessed as cell growth inhibition up to 10 uM measured after 24 to 72 hrs by MTT assay relative to control; type: functional; conditions: dose microM <=10; time 24-72 hrs
WI-38 [5] = test: Cytotoxicity against human WI-38 cells assessed as cell growth inhibition up to 10 uM measured after 24 to 72 hrs by MTT assay relative to control; type: cell-based; conditions: time 24-72 hrs
NCI-H460 [6] = test: Cytotoxicity against human NCI-H460 cells assessed as cell growth inhibition measured after 24 to 72 hrs by MTT assay; type: functional, cell-based
WI-38 [7] = test: Cytotoxicity against human WI-38 cells assessed as cell growth inhibition measured after 24 to 72 hrs by MTT assay; type: cell-based
PC-3 [8] = test: Cytotoxicity against human PC-3 cells assessed as cell growth inhibition measured after 24 to 72 hrs by MTT assay; type: functional, cell-based
MCF7 [9] = test: Cytotoxicity against human MCF7 cells assessed as cell growth inhibition measured after 24 to 72 hrs by MTT assay; type: functional, cell-based
SF-268 [10] = test: Cytotoxicity against human SF-268 cells assessed as cell growth inhibition measured after 24 to 72 hrs by MTT assay; type: functional, cell-based
NCI-H460 [11] = test: Cytotoxicity against human NCI-H460 cells assessed as cell growth inhibition measured after 24 to 72 hrs in presence of 5beta,6beta-epoxy-2,3-dihydrophysalin C-3beta-O-sulfate by MTT assay; type: functional, cell-based
PC-3 [12] = test: Cytotoxicity against human PC-3 cells assessed as cell growth inhibition measured after 24 to 72 hrs in presence of 5beta,6beta-epoxy-2,3-dihydrophysalin C-3beta-O-sulfate by MTT assay; type: functional, cell-based
WI-38 [13] = test: Cytotoxicity against human WI-38 cells assessed as cell growth inhibition measured after 24 to 72 hrs in presence of 5beta,6beta-epoxy-2,3-dihydrophysalin C-3beta-O-sulfate by MTT assay; type: cell-based
MCF7 [14] = test: Cytotoxicity against human MCF7 cells assessed as cell growth inhibition measured after 24 to 72 hrs in presence of 5beta,6beta-epoxy-2,3-dihydrophysalin C-3beta-O-sulfate by MTT assay; type: functional, cell-based
SF-268 [15] = test: Cytotoxicity against human SF-268 cells assessed as cell growth inhibition measured after 24 to 72 hrs in presence of 5beta,6beta-epoxy-2,3-dihydrophysalin C-3beta-O-sulfate by MTT assay; type: functional, cell-based
MCF7 [16] = test: Cytotoxicity against human MCF7 cells assessed as cell growth inhibition measured after 24 to 72 hrs in presence of 2,3-dihydrophysalin F-3beta-O-sulfate by MTT assay; type: functional, cell-based
WI-38 [17] = test: Cytotoxicity against human WI-38 cells assessed as cell growth inhibition measured after 24 to 72 hrs in presence of 2,3-dihydrophysalin F-3beta-O-sulfate by MTT assay; type: cell-based
SF-268 [18] = test: Cytotoxicity against human SF-268 cells assessed as cell growth inhibition measured after 24 to 72 hrs in presence of 2,3-dihydrophysalin F-3beta-O-sulfate by MTT assay; type: functional, cell-based
NCI-H460 [19] = test: Cytotoxicity against human NCI-H460 cells assessed as cell growth inhibition measured after 24 to 72 hrs in presence of 2,3-dihydrophysalin F-3beta-O-sulfate by MTT assay; type: functional, cell-based
PC-3 [20] = test: Cytotoxicity against human PC-3 cells assessed as cell growth inhibition measured after 24 to 72 hrs in presence of 2,3-dihydrophysalin F-3beta-O-sulfate by MTT assay; type: functional, cell-based
MCF7 [21] = test: Cytotoxicity against human MCF7 cells assessed as cell growth inhibition measured after 24 hrs by MTT assay; type: functional, cell-based; conditions: MCF7, 24 h
PC-3 [22] = test: Cytotoxicity against human PC-3 cells assessed as cell growth inhibition measured after 24 hrs by MTT assay; type: functional, cell-based; conditions: PC-3, 24 h

| Structure (SMILES) | growth inhibition (GI) (SF-268 [1]) [%] | growth inhibition (GI) (NCI-H460 [2]) [%] | growth inhibition (GI) (MCF7 [3]) [%] | growth inhibition (GI) (PC-3 [4]) [%] | growth inhibition (GI) (WI-38 [5]) [%] | IC50 (NCI-H460 [6]) [nM] | IC50 (WI-38 [7]) [nM] | IC50 (PC-3 [8]) [nM] | IC50 (MCF7 [9]) [nM] | IC50 (SF-268 [10]) [nM] | other results |
| --- | --- | --- | --- | --- | --- | --- | --- | --- | --- | --- | --- |
| CO[C@]12CC=CC(=O)[C@]1(C)[C@H]1CC[C@@]3(O)C(=O)O[C@@]4(C)[C@H]5C[C@]6(C)[C@@H](CO[C@@]7(O[C@]34[C@H]6C7=O)[C@@H]1C[C@H]2O)C(=O)O5 | <50 | <50 | <50 | <50 | < 50 |  |  |  |  |  |  |
| C[C@@]12C[C@H]3OC(=O)[C@@H]1CO[C@]14O[C@]5([C@H]2C1=O)[C@@](O)(CC[C@H]1[C@H]4C[C@@H](O)[C@@]2(Cl)CC=CC(=O)[C@]12C)C(=O)O[C@@]35C |  |  |  |  |  | 600 | 3900 | 1000 | 2100 | 800 |  |
| C[C@@]12C[C@H]3OC(=O)[C@@H]1CO[C@]14O[C@@]5([C@H]2C1=O)[C@@]3(C)OC(=O)[C@@]5(O)CC[C@H]1[C@H]4C[C@@H](O)[C@@]2(O)CC=CC(=O)[C@]12C | <50 | <50 | <50 | <50 | < 50 |  |  |  |  |  |  |
| C=C1C(=O)O[C@@H]2C[C@@]1(C)[C@@H]1C(=O)[C@]3(O)O[C@@]14[C@@](O)(CC[C@H]1[C@H]3C[C@@H](O)[C@@]3(Cl)CC=CC(=O)[C@]13C)C(=O)O[C@@]24C |  |  |  |  |  | 600 | 3200 | 800 | 1200 | 500 |  |
| C[C@@]12C[C@H]3OC(=O)[C@@H]1CO[C@]14O[C@]5([C@H]2C1=O)[C@@](O)(CC[C@H]1[C@H]4C[C@H]2O[C@]24C[C@@H](OS(=O)(=O)O)CC(=O)[C@]14C)C(=O)O[C@@]35C |  |  |  |  |  |  |  |  |  |  | IC50 (NCI-H460 [11]): 2000 nM; IC50 (PC-3 [12]): 2600 nM; IC50 (WI-38 [13]): > 10000 nM; IC50 (MCF7 [14]): > 7200 nM; IC50 (SF-268 [15]): 2400 nM |
| C=C1C(=O)O[C@@H]2C[C@@]1(C)[C@@H]1C(=O)[C@]3(O)O[C@@]14[C@@](O)(CC[C@H]1[C@H]3C[C@H]3O[C@]35C[C@@H](OS(=O)(=O)O)CC(=O)[C@]15C)C(=O)O[C@@]24C |  |  |  |  |  |  |  |  |  |  | IC50 (MCF7 [16]): > 7200 nM; IC50 (WI-38 [17]): > 10000 nM; IC50 (SF-268 [18]): 2400 nM; IC50 (NCI-H460 [19]): 2000 nM; IC50 (PC-3 [20]): 2600 nM |
| C/C(=C1/C(=O)C[C@H]2[C@@H]3[C@@H]4O[C@@H]4[C@@]4(O)CC=CC(=O)[C@]4(C)[C@H]3CC(=O)[C@]12C)[C@H]1C[C@]2(C)O[C@]2(C)C(=O)O1 |  |  |  |  |  | 6500 | > 10000 | 2300 | > 10000 | 7200 | IC50 (MCF7 [21]): > 100000 nM; IC50 (PC-3 [22]): 68000 nM |
| CC(=O)O[C@]12O[C@@]34[C@@H](C1=O)[C@]1(C)C[C@@H](OC(=O)[C@H]1C)[C@]3(C)OC(=O)[C@]4(O)CC[C@H]1[C@H]2C[C@H]2O[C@]23CCCC(=O)[C@]13C | <50 | <50 | <50 | <50 | < 50 |  |  |  |  |  |  |
| CO[C@@H]1CC(=O)[C@]2(C)[C@H]3CC[C@@]4(O)C(=O)O[C@@]5(C)[C@H]6C[C@]7(C)[C@@H](CO[C@@]8(O[C@]45[C@H]7C8=O)[C@@H]3C[C@H]3O[C@]32C1)C(=O)O6 | <50 | <50 | <50 | <50 | < 50 |  |  |  |  |  |  |
| C=C1C(=O)O[C@@H]2C[C@@]1(C)[C@@H]1C(=O)[C@]3(O)O[C@@]14[C@@](O)(CC[C@H]1[C@H]3C[C@H]3O[C@]35CC=CC(=O)[C@]15C)C(=O)O[C@@]24C |  |  |  |  |  | 1200 | 3900 | 1000 | 1700 | 900 |  |
| C[C@@H]1C(=O)O[C@@H]2C[C@@]1(C)[C@@H]1C(=O)[C@]3(O)O[C@@]14[C@@](O)(CC[C@H]1[C@H]3C[C@H]3O[C@]35CCCC(=O)[C@]15C)C(=O)O[C@@]24C | <50 | <50 | <50 | <50 | < 50 |  |  |  |  |  |  |
| C[C@@]12C[C@H]3OC(=O)[C@@H]1CO[C@]14O[C@@]5([C@H]2C1=O)[C@@]3(C)OC(=O)[C@@]5(O)CC[C@H]1[C@H]4C[C@H]2O[C@]23CC=CC(=O)[C@]13C |  |  |  |  |  | 1000 | 3500 | 1000 | 600 | 500 |  |
| COc1cccc2c1C(=O)c1c(O)c3c(c(O)c1C2=O)C[C@@](O)(C(=O)CO)C[C@@H]3O[C@H]1C[C@H](N)[C@H](O)[C@H](C)O1 [DOXORUBICIN] |  |  |  |  |  |  |  |  |  | 500 |  |
| C[C@]12C(=O)C=CCC1=CC[C@@H]1[C@@H]2CC[C@]2(O)C(=O)O[C@@]3(C)[C@H]4C[C@]5(C)[C@@H](CO[C@@]16O[C@@]32[C@H]5C6=O)C(=O)O4 [PHYSALIN B] |  |  |  |  |  | 900 | 3300 | 1000 | 1000 | 600 |  |
